Laboratory results from US11787785B2 (NOVARTIS AG, priority 2021, dated 2023).

Target: T1, WIZ protein (HiBit-WIZ fusion protein) (Homo sapiens, UniProt O95785+Q96SW2)
T1 construct: expressed in transfected cells
Assay: Quantification of WIZ protein levels in HiBit tag fusion protein assay (WIZ HiBit assay in 293T cells)
Assay type: cell-based
Conditions: for Dmax at 25 µM / remaining activity at 25 µM: HEK-293T, 293T cells; for Dmax at 25 µM: 100 − Amax, read-out: % degradation of WIZ (100 − Amax); for remaining activity at 25 µM: DMSO-normalized, curve-fitted percentage of WIZ-HiBit remaining at 25 uM, read-out: WIZ Amax; for DC50: WIZ HiBit assay in 293T cells, 10-point, 5-fold dose response, highest concentration 25 μM, about 18 hours, read-out: WIZ AC50
Procedure: The HiBit system from Promega was used to develop high-throughput and quantitative assays to measure changes in WIZ protein levels in response to compounds. The HiBit tag was derived from a split Nanoluciferase and has the following protein sequence: […] (SEQ ID NO: 1). The complementary fragment of Nanoluciferase (known as LgBit, from Promega), was added to the HiBit tag to form an active Nanoluciferase enzyme whose activity can be precisely measured. In this way, the levels of a fusion protein with the HiBit tag can be quantified in cell lysates.
Lentiviral vectors, based on the Invitrogen™ pLenti6.2/V5 DEST backbone were constructed that places the HiBit tag upstream of WIZ and expressed the fusion protein from an HSVTK promotor.
To ensure moderate and consistent expression of the HiBit-WIZ fusion protein across all cells in the population, stable cell lines were constructed from cells harboring a single copy of the construct. Lentivirus packaged with the constructs were made using the ViraPower™ kit from Invitrogen™. 293T cells from ATCC (Catalog number: CRL-3216), were infected with the virus at low multiplicity of infection and selected by 5 μg/mL blasticidin in culture media for 2 weeks.
The levels of HiBit-WIZ tagged fusion proteins in compound-treated cell lines were measured as follows:
On day 1, cells were diluted to 1.0×10^6 cells/ml in normal growth medium. 20 μL of cell suspension were plated in each well of a solid white 384-well plate. Plates were incubated overnight in a 37° C. and 5% CO2 humidified tissue culture incubator.
On day 2, serial dilutions of compounds were made in 384-well plates. Compound plates were set up with DMSO in columns 1, 2, 23, 24, and 10-point compound dilution series in column 3-12 and column 13-22. 10 mM stock solution of compound were placed into column 3 or 13 and a 1:5 serial dilution was carried out until there was a 10-point dilution series per compound. 50 nL of diluted compounds were transferred into the plated cells by Echo® (Labcyte) acoustic transfer. The highest concentration of compound was 25 μM. Plates were incubated overnight (about 18 hours) in a 37° C. and 5% CO2 humidified tissue culture incubator.
On day 3, plates were removed from the incubator and allowed to equilibrate at room temperature for 60 minutes. HiBit substrate (Nano-Glo® HiBit Lytic Detection System, Promega Catalogue number: N3050) was added as described by the manufacturers protocols. Plates were incubated at room temperature for 30 minutes and luminescence was read using an EnVision® reader (PerkinElmer®). Data was analyzed and visualized using the Spotfire® software package.
WIZ Degradation Activity of Compounds (Table 1)
WIZ Amax reflects the DMSO-normalized, curve-fitted percentage of WIZ-HiBit remaining at 25 uM. It was calculated by normalizing […] controls to 100%, parametric curve fitting of the dose response data (10-point, 5-fold), followed by calculation of response at 25 uM using the fitted equation (nd=not determined).

T1 sequence (O95785 whole entry, the tested form may be a part): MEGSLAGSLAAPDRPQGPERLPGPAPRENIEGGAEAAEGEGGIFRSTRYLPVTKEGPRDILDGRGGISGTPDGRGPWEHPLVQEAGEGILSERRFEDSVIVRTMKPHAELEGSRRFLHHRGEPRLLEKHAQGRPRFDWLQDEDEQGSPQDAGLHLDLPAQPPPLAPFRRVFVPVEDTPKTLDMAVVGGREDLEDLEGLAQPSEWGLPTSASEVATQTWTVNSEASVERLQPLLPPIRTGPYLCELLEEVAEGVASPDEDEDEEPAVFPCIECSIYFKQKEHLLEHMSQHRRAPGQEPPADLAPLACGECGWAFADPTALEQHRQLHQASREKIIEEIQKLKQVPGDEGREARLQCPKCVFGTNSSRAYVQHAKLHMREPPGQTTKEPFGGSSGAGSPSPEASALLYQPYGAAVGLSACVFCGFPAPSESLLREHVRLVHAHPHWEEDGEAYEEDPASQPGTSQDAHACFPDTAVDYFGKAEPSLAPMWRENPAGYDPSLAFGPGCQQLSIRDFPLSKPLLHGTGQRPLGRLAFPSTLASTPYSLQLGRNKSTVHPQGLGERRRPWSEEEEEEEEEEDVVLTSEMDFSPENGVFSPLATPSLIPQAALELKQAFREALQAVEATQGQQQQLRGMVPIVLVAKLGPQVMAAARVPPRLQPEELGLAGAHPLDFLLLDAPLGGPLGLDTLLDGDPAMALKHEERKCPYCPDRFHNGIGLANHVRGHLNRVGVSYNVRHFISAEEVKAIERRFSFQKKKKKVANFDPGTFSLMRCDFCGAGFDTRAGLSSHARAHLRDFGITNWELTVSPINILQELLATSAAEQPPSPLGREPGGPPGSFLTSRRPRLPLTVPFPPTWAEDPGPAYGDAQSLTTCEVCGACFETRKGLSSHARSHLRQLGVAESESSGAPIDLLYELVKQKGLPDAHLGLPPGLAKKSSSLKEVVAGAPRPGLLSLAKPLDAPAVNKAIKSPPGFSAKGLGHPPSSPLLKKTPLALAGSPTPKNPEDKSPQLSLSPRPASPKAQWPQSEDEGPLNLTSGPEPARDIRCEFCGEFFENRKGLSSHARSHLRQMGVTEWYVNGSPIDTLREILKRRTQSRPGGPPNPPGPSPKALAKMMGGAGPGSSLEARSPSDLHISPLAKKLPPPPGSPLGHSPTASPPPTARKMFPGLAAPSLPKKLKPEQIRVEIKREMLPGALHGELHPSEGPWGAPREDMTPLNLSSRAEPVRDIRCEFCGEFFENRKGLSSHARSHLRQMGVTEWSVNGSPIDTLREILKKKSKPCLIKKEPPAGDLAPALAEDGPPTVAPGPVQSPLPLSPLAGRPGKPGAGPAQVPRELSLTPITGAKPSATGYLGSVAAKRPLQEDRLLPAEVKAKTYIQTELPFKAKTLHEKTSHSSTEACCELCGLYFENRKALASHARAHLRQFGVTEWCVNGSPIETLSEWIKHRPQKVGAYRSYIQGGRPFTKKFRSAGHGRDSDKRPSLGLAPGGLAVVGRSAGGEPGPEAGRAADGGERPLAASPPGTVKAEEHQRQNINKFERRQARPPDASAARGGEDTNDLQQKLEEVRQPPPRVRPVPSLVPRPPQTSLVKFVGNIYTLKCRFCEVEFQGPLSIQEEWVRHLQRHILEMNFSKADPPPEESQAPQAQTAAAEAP
T1 sequence (Q96SW2 whole entry, the tested form may be a part): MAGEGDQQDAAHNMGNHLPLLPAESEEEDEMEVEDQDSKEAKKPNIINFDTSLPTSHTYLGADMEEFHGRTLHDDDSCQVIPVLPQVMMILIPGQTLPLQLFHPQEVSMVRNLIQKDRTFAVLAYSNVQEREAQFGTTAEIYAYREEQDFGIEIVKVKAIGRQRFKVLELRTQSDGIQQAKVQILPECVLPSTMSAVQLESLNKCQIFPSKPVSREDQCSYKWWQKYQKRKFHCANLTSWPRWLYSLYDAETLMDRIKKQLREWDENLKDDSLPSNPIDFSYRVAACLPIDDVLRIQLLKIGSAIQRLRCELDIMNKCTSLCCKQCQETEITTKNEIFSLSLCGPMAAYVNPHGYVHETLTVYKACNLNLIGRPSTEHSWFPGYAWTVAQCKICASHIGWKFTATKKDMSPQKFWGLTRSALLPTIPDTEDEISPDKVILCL
T1 sequence (Q16531 whole entry partner, the tested form may be a part): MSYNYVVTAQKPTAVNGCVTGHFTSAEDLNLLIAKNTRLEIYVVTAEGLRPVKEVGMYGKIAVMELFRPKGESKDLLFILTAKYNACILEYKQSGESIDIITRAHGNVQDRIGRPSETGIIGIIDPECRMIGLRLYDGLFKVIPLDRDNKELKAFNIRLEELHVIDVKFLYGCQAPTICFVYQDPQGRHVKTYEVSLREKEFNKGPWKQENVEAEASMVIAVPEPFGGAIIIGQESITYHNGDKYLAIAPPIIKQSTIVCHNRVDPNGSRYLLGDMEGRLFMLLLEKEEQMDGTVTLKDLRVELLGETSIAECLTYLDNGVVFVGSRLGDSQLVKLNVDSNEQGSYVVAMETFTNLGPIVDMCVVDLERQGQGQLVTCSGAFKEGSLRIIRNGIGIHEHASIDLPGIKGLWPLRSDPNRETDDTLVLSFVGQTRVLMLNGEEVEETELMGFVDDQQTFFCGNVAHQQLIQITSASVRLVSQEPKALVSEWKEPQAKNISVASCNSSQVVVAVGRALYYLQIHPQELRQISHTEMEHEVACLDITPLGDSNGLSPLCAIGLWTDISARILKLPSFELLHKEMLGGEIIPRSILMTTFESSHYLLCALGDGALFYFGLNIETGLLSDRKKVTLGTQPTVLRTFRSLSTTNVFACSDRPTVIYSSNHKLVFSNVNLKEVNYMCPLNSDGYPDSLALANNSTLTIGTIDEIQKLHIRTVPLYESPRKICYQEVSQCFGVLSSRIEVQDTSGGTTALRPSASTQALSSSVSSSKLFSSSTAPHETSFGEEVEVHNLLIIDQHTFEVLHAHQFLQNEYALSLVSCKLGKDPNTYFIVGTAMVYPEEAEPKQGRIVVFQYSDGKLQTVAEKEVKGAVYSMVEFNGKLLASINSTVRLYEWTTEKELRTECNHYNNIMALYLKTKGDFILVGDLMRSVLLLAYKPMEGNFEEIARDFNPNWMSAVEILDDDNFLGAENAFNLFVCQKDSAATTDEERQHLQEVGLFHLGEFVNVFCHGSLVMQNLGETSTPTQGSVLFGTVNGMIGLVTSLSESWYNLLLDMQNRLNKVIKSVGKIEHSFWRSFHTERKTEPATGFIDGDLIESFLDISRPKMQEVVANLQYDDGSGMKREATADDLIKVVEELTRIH

Compound | Dmax at 25 µM [%] | remaining activity at 25 µM [%] | DC50 [nM]
CC(C)CCN1CCC(Cc2ccn3ncc(N4CCC(=O)NC4=O)c3c2)CC1 [Example 19, 1-(5-((1-isopentylpiperidin-4-yl)methyl)pyrazolo[1,5-a]pyridin-3-yl)dihydropyrimidine-2,4(1H,3H)-dione] | 81 | 19 | 20
CCC(CC)N1CCC(Cc2ccn3ncc(N4CCC(=O)NC4=O)c3c2)CC1 [Example 20, 1-(5-((1-(pentan-3-yl)piperidin-4-yl)methyl)pyrazolo[1,5-a]pyridin-3-yl)dihydropyrimidine-2,4(1H,3H)-dione] | 79 | 21 | 22
CC(c1cccnc1)N1CCC(Cc2ccn3ncc(N4CCC(=O)NC4=O)c3c2)CC1 (stereo not drawn) [Example 21, 1-(5-((1-(1-(pyridin-3-yl)ethyl)piperidin-4-yl)methyl)pyrazolo[1,5-a]pyridin-3-yl)dihydropyrimidine-2,4(1H,3H)-dione] | 78 | 22 | 25
O=C1CCN(c2cnn3ccc(CC4CCN(Cc5cccc(F)c5)CC4)cc23)C(=O)N1 [Example 22, 1-(5-((1-(3-fluorobenzyl)piperidin-4-yl)methyl)pyrazolo[1,5-a]pyridin-3-yl)dihydropyrimidine-2,4(1H,3H)-dione] | 77 | 23 | 71
O=C1CCN(c2cnn3ccc(CC4CCN(Cc5ccc(F)cc5)CC4)cc23)C(=O)N1 [Example 23, 1-(5-((1-(4-fluorobenzyl)piperidin-4-yl)methyl)pyrazolo[1,5-a]pyridin-3-yl)dihydropyrimidine-2,4(1H,3H)-dione] | 77 | 23 | 144
CCN1CCC(Cc2ccn3ncc(N4CCC(=O)NC4=O)c3c2)CC1 [Example 24, 1-(5-((1-ethylpiperidin-4-yl)methyl)pyrazolo[1,5-a]pyridin-3-yl)dihydropyrimidine-2,4(1H,3H)-dione] | 77 | 23 | 1080
O=C1CCN(c2cnn3ccc(CC4CCN(Cc5cccc(C(F)(F)F)c5)CC4)cc23)C(=O)N1 [Example 25, 1-(5-((1-(3-(trifluoromethyl)benzyl)piperidin-4-yl)methyl)pyrazolo[1,5-a]pyridin-3-yl)dihydropyrimidine-2,4(1H,3H)-dione] | 76 | 24 | 40

Continued, values first:

Dmax at 25 µM [%] | remaining activity at 25 µM [%] | DC50 [nM] | Compound
76 | 24 | 297 | CC(c1ccccc1)N1CCC(Cc2ccn3ncc(N4CCC(=O)NC4=O)c3c2)CC1 (stereo not drawn) [Example 26, 1-(5-((1-(1-phenylethyl)piperidin-4-yl)methyl)pyrazolo[1,5-a]pyridin-3-yl)dihydropyrimidine-2,4(1H,3H)-dione]
76 | 24 | 46 | O=C1CCN(c2cnn3ccc(CC4CCN(Cc5cccc(OC(F)(F)F)c5)CC4)cc23)C(=O)N1 [Example 27, 1-(5-((1-(3-(trifluoromethoxy)benzyl)piperidin-4-yl)methyl)pyrazolo[1,5-a]pyridin-3-yl)dihydropyrimidine-2,4(1H,3H)-dione]
75 | 25 | 105 | O=C1CCN(c2cnn3ccc(CC4CCN(Cc5ccncc5)CC4)cc23)C(=O)N1 [Example 28, 1-(5-((1-(pyridin-4-ylmethyl)piperidin-4-yl)methyl)pyrazolo[1,5-a]pyridin-3-yl)dihydropyrimidine-2,4(1H,3H)-dione]
74 | 26 | 232 | O=C1CCN(c2cnn3ccc(CC4CCN(Cc5ccccc5)CC4)cc23)C(=O)N1 [Example 29, 1-(5-((1-benzylpiperidin-4-yl)methyl)pyrazolo[1,5-a]pyridin-3-yl)dihydropyrimidine-2,4(1H,3H)-dione]
